Laboratory results published in patent publication US20230355599A1, “BIOMARKERS FOR CBL, AND COMPOSITIONS AND METHODS FOR THEIR USE” (NURIX THERAPEUTICS, INC., priority 2022, published 2023).

Key:
Format in all cases: cell-based
phosphorylated PLCγ2 = assay: Phosphorylated PLCγ2 in cynomolgus macaque CD8+ T cells from whole blood in vitro (flow cytometry); details: Macaca fascicularis, T-cell, whole blood from six cynomolgus macaques, 2 hrs 37° C., 2 μg/mL anti-CD3 & anti-CD28 + crosslinker 60 minutes, read-out: Average mean EC50±standard deviation, phosphorylated PLCγ2
Description: (§1) To assess these candidate clinical proximal biomarkers of Cbl-b inhibition on T cells, pharmacodynamic analysis was performed. Whole blood was obtained from cynomolgus macaque donors, then incubated with increasing concentrations of Compound 23. The response to Cbl-b inhibition on phosphorylated HS1, ZAP70 and PLCγ2 was measured in CD8^+ T cells using flow cytometry. This technique is highly quantitative and can measure multiple phosphorylation markers in different cell populations within the same sample.
DMSO (Dimethyl sulfoxide) was used to reconstitute Compound 23. Final concentration of DMSO was 0.05% in media for in vitro assays. […]
(§2) Stained cells were run on an Attune NxT Acoustic Focusing Flow Cytometer (Thermo Fisher, cat. No. A29004), and data was analyzed using FlowJo (v10.6.1) and GraphPad Prism (v8.00) software. Single lymphocytes were gated for CD8^+ cells (CD45^+/CD8^+) cells, and population frequencies were calculated for each population. The data is quantified by the percent positive. […] As protein becomes phosphorylated the fluorescence increases resulting in a larger fraction of the cells entering that gate. Each population was evaluated for % positive pY759-PLCγ2, pY397-HS1 levels, pY319/Syk (Y352)-ZAP70 levels.

phosphorylated ZAP70 = assay: Phosphorylated ZAP70 in human CD8+ T cells from whole blood in vitro (flow cytometry); details: T-cell, whole blood from six human donors, 2 hrs 37° C., anti-CD3/anti-CD28 + crosslinker 60 minutes, read-out: Average mean EC50±standard deviation, phosphorylated ZAP70
Description: as §1, with “human donors and” for “cynomolgus macaque donors, then”, “HS1, PLCγ2, and” for “HS1,”, “ZAP70” for “ZAP70 and PLCγ2”
(§3) For pharmacodynamic analysis, whole blood was obtained from six human donors (BioIVT) and used for flow cytometry assays to evaluate phosphorylated biomarkers HS1, PLCγ2, and ZAP70 in CD8^+ T cells.
(§4) Whole blood was collected in a collection tube coated with sodium heparin. […]
as §2

phosphorylated HS1 = assay: Phosphorylated HS1 in human CD8+ T cells from whole blood in vitro (flow cytometry)
Description: as §1, with “human donors and” for “cynomolgus macaque donors, then”, “HS1, PLCγ2, and” for “HS1,”, “ZAP70” for “ZAP70 and PLCγ2”
as §3, §4
as §2, with “levels. […]” for “levels.”

C[C@H]1CCCN(Cc2cc3c(c(C(F)(F)F)c2)CN(c2cccc([C@]4(c5nncn5C)C[C@@H](C)C4)c2)C3=O)C1 [Compound 23]
EC50 (phosphorylated PLCγ2): 121 ± 37.4 nM
EC50 (phosphorylated ZAP70): 120 ± 8.97 nM
EC50 (phosphorylated HS1; T-cell, whole blood from six human donors, 2 hrs 37° C., anti-CD3/anti-CD28 + crosslinker 60 minutes, CD8+ T cells, read-out: Average mean EC50±standard deviation, phosphorylated HS1): 89 ± 7.91 nM
phosphorylated HS1 in human whole blood (FIG. 7) (phosphorylated HS1; human donors n=6, two hours at 37° C., anti-CD3 and anti-CD28 co-stimulation, crosslinked): concentration-dependent increase
